Measurements as given in patent US8563551B2, “Method for preventing or treating a disease related to the glucocorticoid receptor” (Santen Pharmaceutical Co., Ltd., priority 2006, dated 2013).

Each compound was assayed against T1, Recombinant human GR (Homo sapiens, UniProt P04150) (assay: GR competitor assay (receptor competitor assay by fluorescence polarization, Invitrogen kit P2816)). Settings: 20 μM test compound solution (10 μL per well plus 5 μL 4×GS1 and 5 μL 4×GR); relative to 2 mM dexamethasone positive control; ratios of 100% or more are indicated by 100%; read-out: GR Binding ratio (%).
T1 construct: purchased Invitrogen P2816
T1 sequence (P04150 1-777): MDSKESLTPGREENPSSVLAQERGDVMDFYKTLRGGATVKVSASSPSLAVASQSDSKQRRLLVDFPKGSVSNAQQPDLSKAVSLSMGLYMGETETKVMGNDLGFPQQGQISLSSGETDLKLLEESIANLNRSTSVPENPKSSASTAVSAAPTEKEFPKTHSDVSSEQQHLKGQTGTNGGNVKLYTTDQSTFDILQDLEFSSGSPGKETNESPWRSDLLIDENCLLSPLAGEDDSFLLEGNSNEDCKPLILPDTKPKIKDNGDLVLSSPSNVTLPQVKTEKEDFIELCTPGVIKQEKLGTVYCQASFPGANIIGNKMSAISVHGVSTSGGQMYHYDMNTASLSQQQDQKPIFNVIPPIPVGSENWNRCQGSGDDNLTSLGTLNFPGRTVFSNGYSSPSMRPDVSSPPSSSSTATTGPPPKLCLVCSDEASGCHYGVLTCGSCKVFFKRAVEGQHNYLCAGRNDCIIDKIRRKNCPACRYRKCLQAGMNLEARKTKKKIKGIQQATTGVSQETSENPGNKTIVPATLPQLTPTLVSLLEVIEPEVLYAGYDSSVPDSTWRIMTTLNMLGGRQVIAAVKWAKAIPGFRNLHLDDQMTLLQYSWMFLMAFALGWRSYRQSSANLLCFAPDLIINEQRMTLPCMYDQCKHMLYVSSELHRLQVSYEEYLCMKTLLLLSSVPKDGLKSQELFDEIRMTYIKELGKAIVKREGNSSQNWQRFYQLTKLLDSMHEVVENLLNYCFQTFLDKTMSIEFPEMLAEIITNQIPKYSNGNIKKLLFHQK
Description: In order to evaluate a binding activity to GR, a receptor competitor assay was carried out by a fluorescence polarization method. In the assay, a GR competitor assay kit (manufactured by Invitrogen, cat No. P2816) was used, and a procedure was carried out according to the protocol attached to the kit. Hereinafter, the specific method will be described.
GR screening buffer: A buffer containing 10 mM potassium phosphate (pH 7.4), 20 mM sodium molybdate (Na2MoO4), 0.1 mM ethylene diamine tetraacetic acid (EDTA), 5 mM dithiothreitol (DTT), 0.1 mM stabilizing peptide and 2% dimethylsulfoxide was prepared.
4×GS1 solution: Fluormone™ GS1, which is a fluorescent glucocorticoid ligand, was diluted with GR screening buffer, whereby a 4 nM solution was prepared.
4×GR solution: Recombinant human GR was diluted with GR screening buffer, whereby a 16 nM solution was prepared.
After a test compound was dissolved in dimethylsulfoxide, the resulting solution was diluted with GR screening buffer, whereby a 20 μM test compound solution was prepared.
1) The test compound solution was added in an amount of 10 μL into each well of a 384-well plate, and then, 4×GS1 solution and 4×GR solution were added in an amount of 5 μL into each well, respectively.
2) The plate was incubated in a dark place at room temperature for 2 to 4 hours.
3) By using a multimode plate reader, Analyst™ HT (manufactured by LJL Biosystems), fluorescence polarization of each well was measured. As the blank, a well containing GR screening buffer in place of the test compound and 4×GS1 solution was used.
4) The same procedure as that in the above 1) to 3) was carried out except that GR screening buffer was used in place of the test compound solution, and the obtained result was taken as the negative control.
5) The same procedure as that in the above 1) to 3) was carried out except that 2 mM dexamethasone was used in place of the test compound solution, and the obtained result was taken as the positive control.
A GR binding ratio (%) was calculated from the following equation. GR binding ratio(%)=100×[1−(fluorescence polarization of test compound solution−fluorescence polarization of positive control solution)/(fluorescence polarization of negative control solution fluorescence polarization of positive control solution)] (Test Results and Discussion)

| SMILES | inhibition at 20 µM (stock) [%] |
| --- | --- |
| COc1cc(OC(=O)c2cccc(C(C)=O)c2)ccc1-c1ccc2c(c1COC(=O)c1ccc(C)s1)C(C)=CC(C)(C)N2 [Compound 1-27, 6-[4-(3-Acetylbenzoyloxy)-2-methoxyphenyl]-5-(5-methylthiophen-2-ylcarbonyloxymethyl)-2,2,4-trimethyl-1,2-dihydroquinoline] | 89 |
| COc1cc(OC(=O)c2cccs2)ccc1-c1ccc2c(c1COC(=O)c1ccc(C)s1)C(C)=CC(C)(C)N2 [Compound 1-29, 6-[2-Methoxy-4-(thiophen-2-ylcarbonyloxy)phenyl]-5-(5-methylthiophen-2-ylcarbonyloxymethyl)-2,2,4-trimethyl-1,2-dihydroquinoline] | 96 |
| COc1cc(OC(=O)c2cccnc2C)ccc1-c1ccc2c(c1COC(=O)c1ccc(C)s1)C(C)=CC(C)(C)N2 [Compound 1-30, 6-[2-Methoxy-4-(2-methylpyridin-3-ylcarbonyloxy)phenyl]-5-(5-methylthiophen-2-ylcarbonyloxymethyl)-2,2,4-trimethyl-1,2-dihydroquinoline] | 96 |
| COc1cc(OC(=O)c2sccc2Cl)ccc1-c1ccc2c(c1COC(=O)c1ccc(C)s1)C(C)=CC(C)(C)N2 [Compound 1-31, 6-[4-(3-Chlorothiophen-2-ylcarbonyloxy)-2-methoxyphenyl]-5-(5-methylthiophen-2-ylcarbonyloxymethyl)-2,2,4-trimethyl-1,2-dihydroquinoline] | 88 |
| COc1cc(OC(=O)c2cscn2)ccc1-c1ccc2c(c1COC(=O)c1ccc(C)s1)C(C)=CC(C)(C)N2 [Compound 1-32, 6-[2-Methoxy-4-(thiazol-4-ylcarbonyloxy)phenyl]-5-(5-methylthiophen-2-ylcarbonyloxymethyl)-2,2,4-trimethyl-1,2-dihydroquinoline] | 99 |
| COc1cc(OC(=O)c2ccncc2)ccc1-c1ccc2c(c1COC(=O)c1ccc(C)s1)C(C)=CC(C)(C)N2 [Compound 1-33, 6-[2-Methoxy-4-(pyridin-4-ylcarbonyloxy)phenyl]-5-(5-methylthiophen-2-ylcarbonyloxymethyl)-2,2,4-trimethyl-1,2-dihydroquinoline] | 96 |
| COc1ccc(C(=O)OCc2c(-c3ccc(OC(=O)c4cccnc4)cc3OC)ccc3c2C(C)=CC(C)(C)N3)cc1 [Compound 1-34, 5-(4-Methoxybenzoyloxymethyl)-6-[2-methoxy-4-(pyridin-3-ylcarbonyloxy)phenyl]-2,2,4-trimethyl-1,2-dihydroquinoline] | 95 |
| COc1ccc(C(=O)OCc2c(-c3ccc(OC(=O)c4ccccc4Cl)cc3OC)ccc3c2C(C)=CC(C)(C)N3)cc1 [Compound 1-35, 6-[4-(2-Chlorobenzoyloxy)-2-methoxyphenyl]-5-(4-methoxybenzoyloxymethyl)-2,2,4-trimethyl-1,2-dihydroquinoline] | 100 |
| COc1ccc(C(=O)OCc2c(-c3ccc(OC(=O)c4ccco4)cc3OC)ccc3c2C(C)=CC(C)(C)N3)cc1 [Compound 1-36, 6-[4-(Furan-2-ylcarbonyloxy)-2-methoxyphenyl]-5-(4-methoxybenzoyloxymethyl)-2,2,4-trimethyl-1,2-dihydroquinoline] | 100 |
| COc1cc(OC(=O)c2cccnc2)ccc1-c1ccc2c(c1COC(=O)c1ccc(Br)s1)C(C)=CC(C)(C)N2 [Compound 1-37, 5-(5-Bromothiophen-2-ylcarbonyloxymethyl)-6-[2-methoxy-4-(pyridin-3-ylcarbonyloxy)phenyl]-2,2,4-trimethyl-1,2-dihydroquinoline] | 100 |
| COc1cc(OC(=O)c2ccco2)ccc1-c1ccc2c(c1COC(=O)c1ccc(Br)s1)C(C)=CC(C)(C)N2 [Compound 1-39, 5-(5-Bromothiophen-2-ylcarbonyloxymethyl)-6-[4-(furan-2-ylcarbonyloxy)-2-methoxyphenyl]-2,2,4-trimethyl-1,2-dihydroquinoline] | 100 |
| COc1cc(OC(=O)C(C)C)ccc1-c1ccc2c(c1COC(=O)c1ccc(C)s1)C(C)=CC(C)(C)N2 [Compound 1-43, 6-(4-Isopropylcarbonyloxy-2-methoxyphenyl)-5-(5-methylthiophen-2-ylcarbonyloxymethyl)-2,2,4-trimethyl-1,2-dihydroquinoline] | 100 |
| COc1cc(OC(=O)c2ccccc2OC(C)=O)ccc1-c1ccc2c(c1COC(=O)c1ccc(C)s1)C(C)=CC(C)(C)N2 [Compound 1-44, 6-[4-(2-Acetoxybenzoyloxy)-2-methoxyphenyl]-5-(5-methylthiophen-2-ylcarbonyloxymethyl)-2,2,4-trimethyl-1,2-dihydroquinoline] | 96 |
| COc1cc(OC(=O)c2cccnc2OC)ccc1-c1ccc2c(c1COC(=O)c1ccc(C)s1)C(C)=CC(C)(C)N2 [Compound 1-45, 6-[2-Methoxy-4-(2-methoxypyridin-3-ylcarbonyloxy)phenyl]-5-(5-methylthiophen-2-ylcarbonyloxymethyl)-2,2,4-trimethyl-1,2-dihydroquinoline] | 100 |
| COc1cc(OC(=O)c2cccc(C)c2)ccc1-c1ccc2c(c1COC(=O)c1ccc(C)s1)C(C)=CC(C)(C)N2 [Compound 1-46, 6-[2-Methoxy-4-(3-methylbenzoyloxy)phenyl]-5-(5-methylthiophen-2-ylcarbonyloxymethyl)-2,2,4-trimethyl-1,2-dihydroquinoline] | 99 |
| COc1cc(OC(=O)c2ccc(C)cc2)ccc1-c1ccc2c(c1COC(=O)c1ccc(C)s1)C(C)=CC(C)(C)N2 [Compound 1-47, 6-[2-Methoxy-4-(4-methylbenzoyloxy)phenyl]-5-(5-methylthiophen-2-ylcarbonyloxymethyl)-2,2,4-trimethyl-1,2-dihydroquinoline] | 96 |
| COc1cc(OC(=O)c2ccc(F)cc2)ccc1-c1ccc2c(c1COC(=O)c1ccc(C)s1)C(C)=CC(C)(C)N2 [Compound 1-48, 6-[4-(4-Fluorobenzoyloxy)-2-methoxyphenyl]-5-(5-methylthiophen-2-ylcarbonyloxymethyl)-2,2,4-trimethyl-1,2-dihydroquinoline] | 96 |
| COc1cc(OC(=O)c2ccccc2[N+](=O)[O-])ccc1-c1ccc2c(c1COC(=O)c1ccc(C)s1)C(C)=CC(C)(C)N2 [Compound 1-49, 6-[2-Methoxy-4-(2-nitrobenzoyloxy)phenyl]-5-(5-methylthiophen-2-ylcarbonyloxymethyl)-2,2,4-trimethyl-1,2-dihydroquinoline] | 98 |
| COc1cc(OC(=O)c2occc2C)ccc1-c1ccc2c(c1COC(=O)c1ccc(C)s1)C(C)=CC(C)(C)N2 [Compound 1-50, 6-[2-Methoxy-4-(3-methylfuran-2-ylcarbonyloxy)phenyl]-5-(5-methylthiophen-2-ylcarbonyloxymethyl)-2,2,4-trimethyl-1,2-dihydroquinoline] | 90 |
| COc1cc(OS(=O)(=O)CCC(F)(F)F)ccc1-c1ccc2c(c1COC(=O)c1ccc(C)s1)C(C)=CC(C)(C)N2 [Compound 2-1, 6-[2-Methoxy-4-(3,3,3-trifluoropropylsulfonyloxy)phenyl]-5-(5-methylthiophen-2-ylcarbonyloxymethyl)-2,2,4-trimethyl-1,2-dihydroquinoline] | 97 |
| CCCS(=O)(=O)Oc1ccc(-c2ccc3c(c2COC(=O)c2ccc(C)s2)C(C)=CC(C)(C)N3)c(OC)c1 [Compound 2-2, 6-(2-Methoxy-4-propylsulfonyloxyphenyl)-5-(5-methylthiophen-2-ylcarbonyloxymethyl)-2,2,4-trimethyl-1,2-dihydroquinoline] | 99 |
